For assay [1], the system named is intracerebral hemorrhage model rats. The experiment in a line: intracerebral hemorrhage model rats, amount of exercise. The format is in vivo, Wistar rats. To be noted: 100 μg/kg injected into the brain spot one hour after collagenase; hemorrhage day 1 and one week after. The method, then: Intracerebral hemorrhage model rats were prepared by making a small hole into the skull of adult Wistar rats (weight: from 200 to 230 g) under inhalation anesthesia, administering 1.2 μl of a physiological saline to the right brain striatum in Control group and a physiological saline comprising 0.24 U collagenase (type IV) to that of a hemorrhage group.
In order to confirm the brain cell protective action of Specimen 4 for the intracerebral hemorrhage model rats, 100 μg/kg of Specimen 4 was injected into a spot (white lozenge in the drawing) one hour after administration of collagenase, and exercise footprints of the rat were quantitatively measured. (A: Control, B: Hemorrhage group. Pay attention to color change (to black) after hemorrhage).
For the measurement of the amount of exercise, the moving image of the rats was photographed for 5 minutes. The free movement (exercise distance and exercise speed) during the latter 3 minutes of the photographing time was analyzed.

For assay [2] the following is noted: cited from earlier work.
Setting [3] is: as printed in the method, b201, read-out: Kd.

Where two headings read alike, the source gives them in different places.

Broadly, the Kd is a measure of binding affinity in units of concentration.

As to `Cn1c(=O)nc2n(-c3ccccc3)c3cc(Cl)ccc3cc-2c1=O` [Specimen 4], in assay [1], the exercise distance result is “ameliorates an ischemic decrease” and the exercise speed entry is listed as “ameliorates an ischemic decrease”.
With `CC(=O)OCOC(=O)CN(CC(=O)OCOC(C)=O)c1ccc(C)cc1OCCOc1cc(C2=c3cc4c5c(c3Oc3c2cc2c6c3CCCN6CCC2)CCC[N+]=5CCC4)ccc1N(CC(=O)OCOC(C)=O)CC(=O)OCOC(C)=O` [Xrhod-1/AM], the Kd in assay [2] (setting [3]) was 700 µM.
Consider `CC(=O)OCOC(=O)CN(CC(=O)OCOC(C)=O)c1cc(F)ccc1OCCOc1cc2cc(-c3ncc(C(=O)OCOC(C)=O)o3)oc2cc1N(CC(=O)OCOC(C)=O)CC(=O)OCOC(C)=O` [fura-4F/AM], for which the Kd is 770 µM in assay [2] (setting [3]) and 0.77 µM in assay [2] (read-out: Ca2+ chelating ability (Kd)).

The values above are taken from patent US11806351B2, “Use of coenzyme factor for activation of ATP production in cell” (TERA STONE Co., Ltd, priority 2018, dated 2023).
